Patent US7361637B2, “Hypotensors” (Protein Express Co., Ltd., priority 2000, dated 2008)
“And” between values parts separate entries of the source, which are not always exact repeats. Equal entries are not always repeated.

What was measured:
Type in all cases: in vivo, rat
SHR male rats = assay: Hypotensive effect: blood pressure by carotid cannula and pressure transducer after administration to SHR; conditions: for duration of the hypotensive effect from the administration / sustained hypotension at the highest: 1 mg/kg via cannula from external carotid artery
Procedure: A group comprising three SHR male rats (12˜14 weeks age; body weight: 258˜310 g) that are pathological model animals of hypertension was used. Ab mix prepared in Example 1, P mix prepared in Example 2 and dissolved in a physiological saline, and anti-renin neutralizing antibody and captopril, which were the drugs used for comparative study, were intravenously administered at the dose of 0.44 mg/kg, 0.6 mg/kg, 0.12 mg/kg and 100 mg/kg, respectively. Measurement of blood pressure was carried out in such a manner that a cannula inserted into common carotid artery and external carotid artery was connected to a pressure transducer (P23XL; Gould Electronics) and introduced into a pressure processor signal conditioner (Gould Electronics), followed by carrying out measurement every ten minutes until 1 hour from administration of the test substance and every one hour thereafter and the data were recorded on a thermal array recorder (RS 3400; Gould Electronics). […]
A test was carried out for p 1 (pf 1-11), p 2 (pf 5-19) and p 3 (pf 27-41) prepared in Example 2 in the same manner as in Experimental Example 1 using 2 or 4 cases of SHR. The result was that, in the case of administration of 2 mg/kg of p 1, a transient hypertensive action of around 6% was noted immediately after administration, that recovered after 5 minutes from administration, then a hypotensive gradually took place thereafter to an extent of 6% at the highest and a sustained effect was confirmed until 24th hour. […] In the case of administration of 2 mg/kg of p 2, a transient hypotension of around 35% was noted immediately after administration, it recovered at 5 minutes after administration and, after that, a sustained hypotensive action was confirmed until 24th hour to an extent of around 6% at the highest. […] In the case of administration of 10 mg/kg, a hypotension of 7% was noted after 2 hours and, until 24th hour, a sustained hypotensive action where 11% was the highest was confirmed. […]

SHR [1] = assay: Weight of arteries after 14 days of administration to SHR; conditions: 1.6 mg/kg intravenously once daily for 14 days
Procedure: The p 1c (pf 5-11) prepared in Example 2 was intravenously administered once daily for consecutive 14 days at the dose of 1.6 mg/kg to a group comprising 4 SHRs. On the 14th day, the rats were killed by bleeding, followed by excising heart and kidney to measure their weights. The result is shown in Table 1 in terms of weight of the organ per 100 g of body weight. […] Weight of each artery was calculated in terms of weight per each area, followed by further converting the calculated value into the value per body weight of each rat and the results were compared and shown in Table 2.

SHR [2] = assay: Weight of heart and kidney after 14 days of administration to SHR; conditions: 1.6 mg/kg intravenously once daily for 14 days
Procedure: The p 1c (pf 5-11) prepared in Example 2 was intravenously administered once daily for consecutive 14 days at the dose of 1.6 mg/kg to a group comprising 4 SHRs. On the 14th day, the rats were killed by bleeding, followed by excising heart and kidney to measure their weights. The result is shown in Table 1 in terms of weight of the organ per 100 g of body weight.

Compound: C[C@H](CS)C(=O)N1CCC[C@H]1C(=O)O [captopril, reference compound]
- hypotensive action at the 24th hour (completion of the experiment) (SHR male rats; SHR, 100 mg/kg intravenously): no hypotensive action was noted
- maximum hypotension (at the highest) until the 6th hour from the administration (SHR male rats; SHR, 100 mg/kg intravenously): 31%

Compound: D-His-Pro-Phe-His-Leu-ψ-[CH2NH]-Leu-Val-Tyr [H 6137, reference compound]
- duration of the hypotensive effect from the administration (SHR male rats): tendency of disappearance of the effect
- sustained hypotension at the highest (SHR male rats; at 3~8 hours after administration): 9%

Compound: p 1: rat prorenin profragment peptide pf 1-11 (SEQ ID NO: 9) (LPTDTASFGRI; listed as Rattus norvegicus)
- transient hypertension immediately after administration (SHR male rats; SHR, 2 mg/kg intravenously): around 6%
- sustained hypotension at the highest after recovery of the transient change (SHR male rats; SHR, 2 mg/kg intravenously, until 24th hour): 6%
- hypotension at 6 hours after administration (SHR male rats; SHR, 10 mg/kg intravenously): about 7%

Compound: p 1a: rat prorenin profragment peptide pf 1-4 (SEQ ID NO: 10) (LPTD; listed as Rattus norvegicus)
- sustained hypotension at the highest until 24th hour (SHR male rats; SHR, 10 mg/kg intravenously): 13%
- transient hypertension immediately after administration (SHR male rats; SHR, 10 mg/kg intravenously): 13%

Compound: p 1b: rat prorenin profragment peptide pf 1-7 (SEQ ID NO: 11) (LPTDTAS; listed as Rattus norvegicus)
- sustained hypotension at the highest until 24th hour (SHR male rats; SHR, 10 mg/kg intravenously): 13%
- transient hypertension immediately after administration (SHR male rats; SHR, 10 mg/kg intravenously): 17%

Compound: p 1c: rat prorenin profragment peptide pf 5-11 (SEQ ID NO: 12) (TASFGRI; listed as Rattus norvegicus)
- Weight of Artery, Femoral Artery, Mean Value (SHR [1]): 0.00089 mg/mm^2/g body weight
- Weight of Artery, Pulmonary Artery, Mean Value (SHR [1]): 0.00081 mg/mm^2/g body weight
- Weight of Artery, Superior Mesenteric Artery, Mean Value (SHR [1]): 0.00096 mg/mm^2/g body weight
- Weight of Artery, Femoral Artery, individual rats (SHR [1]; 1.6 mg/kg): 0.00068 mg/mm^2/g body weight and 0.00094 mg/mm^2/g body weight and 0.00106 mg/mm^2/g body weight and 0.00087 mg/mm^2/g body weight
- Weight of Artery, Pulmonary Artery, individual rats (SHR [1]; 1.6 mg/kg): 0.00067 mg/mm^2/g body weight and 0.00087 mg/mm^2/g body weight and 0.00088 mg/mm^2/g body weight and 0.00082 mg/mm^2/g body weight
- Weight of Artery, Superior Mesenteric Artery, individual rats (SHR [1]; 1.6 mg/kg): 0.00094 mg/mm^2/g body weight and 0.00095 mg/mm^2/g body weight and 0.00096 mg/mm^2/g body weight and 0.001 mg/mm^2/g body weight
- effect on thickening of artery (remodeling of blood vessel) (SHR [1]; compared with control group): suppresses the thickening of artery
- Weight of Organ, Heart, Mean Value (SHR [2]): 0.39 g/100 g body weight
- Weight of Organ, Left Kidney, Mean Value (SHR [2]): 0.35 g/100 g body weight
- Weight of Organ, Right Kidney, Mean Value (SHR [2]): 0.34 g/100 g body weight
- Weight of Organ, Heart, individual rats (SHR [2]; 1.6 mg/kg): 0.37 g/100 g body weight and 0.4 g/100 g body weight (2×) and 0.39 g/100 g body weight
- Weight of Organ, Left Kidney, individual rats (SHR [2]; 1.6 mg/kg): 0.34 g/100 g body weight and 0.35 g/100 g body weight (3×)
- Weight of Organ, Right Kidney, individual rats (SHR [2]; 1.6 mg/kg): 0.34 g/100 g body weight and 0.35 g/100 g body weight (2×) and 0.33 g/100 g body weight
- effect on hypertrophy of heart and kidney (SHR [2]; compared with physiological saline): suppresses hypertrophy of heart and kidney
- sustained hypotension at the highest until 24th hour (SHR male rats; SHR, 10 mg/kg intravenously): 16%
- transient hypertension immediately after administration (SHR male rats; SHR, 10 mg/kg intravenously): 21%

Compound: p 2a: rat prorenin profragment peptide pf 12-19 (SEQ ID NO: 13) (LLKKMPSV; listed as Rattus norvegicus)
- duration of the hypotensive effect from the administration (SHR male rats): ≥ 12 h
- sustained hypotension at the highest (SHR male rats; at 5~8 hours after administration): 11%
- sustained hypotension at the highest until 24 hours (SHR male rats; SHR, 1 mg/kg intravenously): 14%
- transient hypertension immediately after administration (SHR male rats; SHR, 1 mg/kg intravenously): 6%

Compound: p 2b: rat prorenin profragment peptide pf 11-15 (SEQ ID NO: 14) (ILLKK; listed as Rattus norvegicus)
- sustained hypotension at the highest until 24 hours (SHR male rats; SHR, 1 mg/kg intravenously): The same effect was achieved
